Assay results: the NIST ThermoML archive (doi:10.1016/j.fluid.2011.11.028)

What was measured:
[1] = mn = molality of the nth substance listed, in mol/kg; conditions: 298.15 K, 101 kPa, Liquid; for viscosity: Capillary tube (Ostwald / Ubbelohde) method; for mass density: Vibrating tube method
[2] = cn = amount concentration of the nth substance listed, in mol/dm3; conditions: 298.15 K, 101 kPa, Liquid, Alternating current cell with electrodes

O=C[C@H](O)[C@@H](O)[C@H](O)CO [D-xylose] + O
[1]
Conditions | mass density [kg/m3] | viscosity [mPa·s]
m1 = 0.2 | 1007.79 | 0.953
m1 = 0.4 | 1018.1 | 1.022
m1 = 0.6 | 1028.02 | 1.096
m1 = 0.8 | 1037.53 | 1.175
m1 = 1 | 1046.69 | 1.258
m1 = 1.2 | 1055.41 | 1.344

O=C[C@H](O)[C@@H](O)[C@@H](O)[C@H](O)CO [(+)-galactose] + O
[1]
Conditions | mass density [kg/m3] | viscosity [mPa·s]
m1 = 0.2 | 1010.73 | 0.97
m1 = 0.4 | 1023.81 | 1.06
m1 = 0.6 | 1036.28 | 1.16
m1 = 0.8 | 1048.23 | 1.267
m1 = 1 | 1059.6 | 1.381
m1 = 1.2 | 1070.53 | 1.5

O=C[C@H](O)[C@@H](O)[C@H](O)[C@H](O)CO [D-glucose] + O
[1]
Conditions | mass density [kg/m3] | viscosity [mPa·s]
m1 = 0.2 | 1010.39 | 0.974
m1 = 0.4 | 1023.12 | 1.066
m1 = 0.6 | 1035.32 | 1.166
m1 = 0.8 | 1046.92 | 1.273
m1 = 1 | 1057.99 | 1.385
m1 = 1.2 | 1068.59 | 1.501

CCCCCCn1cc[n+](C)c1.[Cl-] [1-hexyl-3-methylimidazolium chloride] + O
[2]
Conditions | molar conductivity [S·m2/mol]
c1 = 0.0001239 | 0.0103
c1 = 0.0002407 | 0.0103
c1 = 0.0003449 | 0.0102
c1 = 0.0004557 | 0.0102
c1 = 0.0005824 | 0.0102
c1 = 0.0007219 | 0.0101
c1 = 0.0008733 | 0.0101
c1 = 0.0009879 | 0.0101
c1 = 0.001214 | 0.0101
c1 = 0.001417 | 0.01
c1 = 0.001669 | 0.01
c1 = 0.001927 | 0.00999

CCCCCCCC[n+]1ccn(C)c1.[Cl-] [1-methyl-3-octylimidazolium chloride] + O
[2]
Conditions | molar conductivity [S·m2/mol]
c1 = 0.0003264 | 0.0101
c1 = 0.000434 | 0.0101
c1 = 0.0005416 | 0.01
c1 = 0.0006484 | 0.01
c1 = 0.0007536 | 0.01
c1 = 0.0008878 | 0.00997
c1 = 0.001103 | 0.00995
c1 = 0.001269 | 0.00993
c1 = 0.001538 | 0.0099
c1 = 0.001689 | 0.00989
c1 = 0.001863 | 0.00987

O=C[C@H](O)[C@H](O)[C@H](O)CO [D-ribose] + O
[1]
Conditions | mass density [kg/m3] | viscosity [mPa·s]
m1 = 0.2 | 1007.85 | 0.949
m1 = 0.4 | 1018.22 | 1.011
m1 = 0.6 | 1028.18 | 1.077
m1 = 0.8 | 1037.77 | 1.145
m1 = 1 | 1046.98 | 1.215
m1 = 1.2 | 1055.89 | 1.278

CCCCCCCCCCn1cc[n+](C)c1.[Cl-] [1-decyl-3-methylimidazolium chloride] + O
[2]
Conditions | molar conductivity [S·m2/mol]
c1 = 0.0001226 | 0.00997
c1 = 0.0002378 | 0.00993
c1 = 0.0003622 | 0.0099
c1 = 0.0004428 | 0.00987
c1 = 0.0005678 | 0.00984
c1 = 0.000679 | 0.00981
c1 = 0.0007671 | 0.0098
c1 = 0.0008693 | 0.00978
c1 = 0.001044 | 0.00975
c1 = 0.001192 | 0.00974
c1 = 0.001374 | 0.00972
c1 = 0.00153 | 0.0097

CCCCn1cc[n+](C)c1.[Cl-] [1-butyl-3-methylimidazolium chloride] + O
[2]
Conditions | molar conductivity [S·m2/mol]
c1 = 0.0004734 | 0.0107
c1 = 0.0006936 | 0.0106
c1 = 0.0008909 | 0.0106
c1 = 0.001113 | 0.0105
c1 = 0.001311 | 0.0105
c1 = 0.001497 | 0.0105
c1 = 0.00167 | 0.0105
c1 = 0.001839 | 0.0104
c1 = 0.001984 | 0.0104
c1 = 0.002099 | 0.0104
